According to patent publication US9353151B2, “HLA-binding peptide, and DNA fragment and recombinant vector coding for said HLA-binding peptide” (NEC Corporation, priority 2005, dated 2016):
No end group written: not given here.

How the values were obtained:
[1] = test system: HLA-A24 molecule (product of the HLA-A*2402 gene); assay: Experiment of binding peptide to HLA-A24 molecule (C1R-A24 cells, flow cytometry); parameters: species or system human; conditions: for Binding Experiment Data: -log Kd value (Kd in molar concentration), C1R-A24 cells
Procedure: The ability of a peptide to bind to an HLA-A24 molecule, which is a product of the HLA-A*2402 gene, was measured using C1R-A24 cells expressing the HLA-A24 molecule (cells prepared by Professor Masafumi Takiguchi, Kumamoto University being supplied with permission by Assistant Professor Masaki Yasukawa, Ehime University).
C1R-A24 cells were first exposed to acidic conditions at a pH of 3.3 for 30 seconds, thus dissociating and removing a light chain β2m, which is associated with HLA class I molecules in common, and an endogenous peptide originally bound to the HLA-A*2402 molecule. After neutralization, purified β2m was added to C1R-A24 cells, the obtained product was added to serial dilutions of a peptide, and incubated on ice for 4 hours. Staining was carried out using fluorescently labeled monoclonal antibody 17A12, which recognizes association (MHC-pep) of the three members, that is, HLA-A*2402 molecule, the peptide, and β2m, which had reassociated during the incubation.
Subsequently, the MHC-pep count per C1R-A24 cell (proportional to the strength of fluorescence of the above-mentioned fluorescent antibody) was quantitatively measured using an FACScan fluorescence-activated cell sorter (Becton Dickinson Biosciences). A binding dissociation constant Kd value between the HLA-A24 molecule and the peptide was calculated from the average strength of fluorescence per cell by a published method (Udaka et al., Immunogenetics, 51, 816-828, 2000).

[2] = biological target: HLA-A2 molecule (product of the HLA-A*0201 gene) (Homo sapiens, UniProt P04439, D140Y/D185E/D98H/E176V/E277Q/G131W/G231S/I119V/I121R/I166T/I218V/L300P/L318F/N151K/N90K/P208A/P217A/Q86G/Q94H/R138H/R169H/T345S); assay: Experiment of binding peptide to HLA-A2 molecule (JY cells, flow cytometry); conditions: -log Kd value (Kd in molar concentration)
Procedure: JY cells were first exposed to acidic conditions at a pH of 3.8 for 30 seconds, thus dissociating and removing a light chain β2m and an endogenous peptide, which were noncovalently associated with the HLA-A*0201 molecule. After neutralization, a reassociation experiment was carried out.
The above-mentioned JY cells and the purified β2m were added to stepped dilutions of peptide for which the binding ability would be measured, and incubation was carried out on ice for 4 hours. HLA-A*0201 molecules that had reassociated up to this point were stained using the associating type specific fluorescently-labeled monoclonal antibody BB7.2.
Subsequently, the amount of fluorescence per cell was measured using a flow cytometer and a dissociation constant Kd value in molar concentration was calculated by a published method (Udaka et al., Immunogenetics, 51, 816-828, 2000).

| Sequence | binding to a human HLA-A type molecule (in words) [1] | Binding Experiment Data ([1]; 9 amino acid peptides) | other results |
| --- | --- | --- | --- |
| FLKDHRISTF [compound 44] | experimentally confirmed to bind | – | Binding Experiment Data ([1]; 10 amino acid peptides): 7.008 |
| TLPPAWQPF [compound 23] | – | – | Kd ([2]; 9 amino acid peptides): 4.37 µM |
| TLPPAWQPF [compound 1] | experimentally confirmed to bind | 8.2648 | – |
| AFLSVKKQF [compound 2] | experimentally confirmed to bind | 7.7283 | – |
| GAPTLPPAW [compound 6] | experimentally confirmed to bind | 6.1588 | – |
| SSGCAFLSV [compound 21] | – | – | Kd ([2]; 9 amino acid peptides): 5.07 µM |
| FLKDHRISTF [compound 61] | – | – | Kd ([2]; 10 amino acid peptides): 2.95 µM |
